From paper PMC6979384, “Characterization of the plant homeodomain (PHD) reader family for their histone tail interactions” (Epigenetics & Chromatin, 2020)

Key:
Experiment in all cases: Histone peptide microarray
Type in all cases: binding, human
KDM4C (TTP) = conditions: total n = 4; for Array Heatmap signal, KDM4C (TTP): sheet "Array Heatmap", GST-tagged reader, histone peptide array
Summary of the method: (§1)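 Steps: express and purify GST-tagged PHD reader; incubate 0.5 μM protein on a peptide microarray (293 histone peptides, single or combined PTMs) following an optimized protocol; average signal across 4 replicates.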

KDM5A (1) = conditions: total n = 4; for Array Heatmap signal, KDM5A (1): sheet "Array Heatmap", GST-tagged reader, histone peptide array
Summary of the method: as §1

ING2 = conditions: total n = 4; for Array Heatmap signal, ING2: sheet "Array Heatmap", GST-tagged reader, histone peptide array
Summary of the method: as §1

KDM5A (3) = conditions: total n = 4; for Array Heatmap signal, KDM5A (3): sheet "Array Heatmap", GST-tagged reader, histone peptide array
Summary of the method: as §1

MLL5 = conditions: total n = 4; for Array Heatmap signal, MLL5: sheet "Array Heatmap", GST-tagged reader, histone peptide array
Summary of the method: as §1

TAF3 = conditions: total n = 4; for Array Heatmap signal, TAF3: sheet "Array Heatmap", GST-tagged reader, histone peptide array
Summary of the method: as §1

PHF23 = conditions: total n = 4; for Array Heatmap signal, PHF23: sheet "Array Heatmap", GST-tagged reader, histone peptide array
Summary of the method: as §1

CHD4 (PPCC) = conditions: total n = 4; for Array Heatmap signal, CHD4 (PPCC): sheet "Array Heatmap", GST-tagged reader, histone peptide array
Summary of the method: as §1

BAZ2B = conditions: total n = 4; for Array Heatmap signal, BAZ2B: sheet "Array Heatmap", GST-tagged reader, histone peptide array
Summary of the method: as §1

KDM5B (3) = conditions: total n = 4; for Array Heatmap signal, KDM5B (3): sheet "Array Heatmap", GST-tagged reader, histone peptide array
Summary of the method: as §1

DPF2 (PPC2W2) = conditions: total n = 4; for Array Heatmap signal, DPF2 (PPC2W2): sheet "Array Heatmap", GST-tagged reader, histone peptide array
Summary of the method: as §1

ING4 = conditions: total n = 4; for Array Heatmap signal, ING4: sheet "Array Heatmap", GST-tagged reader, histone peptide array
Summary of the method: as §1

PHF8 = conditions: total n = 4; for Array Heatmap signal, PHF8: sheet "Array Heatmap", GST-tagged reader, histone peptide array
Summary of the method: as §1

MORC3 (CW) = conditions: total n = 4; for Array Heatmap signal, MORC3 (CW): sheet "Array Heatmap", GST-tagged reader, histone peptide array
Summary of the method: as §1

ING5 = conditions: total n = 4; for Array Heatmap signal, ING5: sheet "Array Heatmap", GST-tagged reader, histone peptide array
Summary of the method: as §1

KDM5B (1) = conditions: total n = 4; for Array Heatmap signal, KDM5B (1): sheet "Array Heatmap", GST-tagged reader, histone peptide array
Summary of the method: as §1

DIDO1 = conditions: total n = 4; for Array Heatmap signal, DIDO1: sheet "Array Heatmap", GST-tagged reader, histone peptide array
Summary of the method: as §1

PHF21A = conditions: total n = 4; for Array Heatmap signal, PHF21A: sheet "Array Heatmap", GST-tagged reader, histone peptide array
Summary of the method: as §1

ING1 = conditions: total n = 4; for Array Heatmap signal, ING1: sheet "Array Heatmap", GST-tagged reader, histone peptide array
Summary of the method: as §1

KDM7A = conditions: total n = 4; for Array Heatmap signal, KDM7A: sheet "Array Heatmap", GST-tagged reader, histone peptide array
Summary of the method: as §1

SP140L = conditions: total n = 4; for Array Heatmap signal, SP140L: sheet "Array Heatmap", GST-tagged reader, histone peptide array
Summary of the method: as §1

CHD5 (PCC) = conditions: total n = 4; for Array Heatmap signal, CHD5 (PCC): sheet "Array Heatmap", GST-tagged reader, histone peptide array
Summary of the method: as §1

AIRE (PP) = conditions: total n = 4; for Array Heatmap signal, AIRE (PP): sheet "Array Heatmap", GST-tagged reader, histone peptide array
Summary of the method: as §1

CHD5 (PPCC) = conditions: total n = 4; for Array Heatmap signal, CHD5 (PPCC): sheet "Array Heatmap", GST-tagged reader, histone peptide array
Summary of the method: as §1

PHF2 = conditions: total n = 4; for Array Heatmap signal, PHF2: sheet "Array Heatmap", GST-tagged reader, histone peptide array
Summary of the method: as §1

ING3 = conditions: total n = 4; for Array Heatmap signal, ING3: sheet "Array Heatmap", GST-tagged reader, histone peptide array
Summary of the method: as §1

TRIM66 (PB) = conditions: total n = 4; for Array Heatmap signal, TRIM66 (PB): sheet "Array Heatmap", GST-tagged reader, histone peptide array
Summary of the method: as §1

RAG2 = conditions: total n = 4; for Array Heatmap signal, RAG2: sheet "Array Heatmap", GST-tagged reader, histone peptide array
Summary of the method: as §1

PHF13 = conditions: total n = 4; for Array Heatmap signal, PHF13: sheet "Array Heatmap", GST-tagged reader, histone peptide array
Summary of the method: as §1

BPTF (PB) = conditions: total n = 4; for Array Heatmap signal, BPTF (PB): sheet "Array Heatmap", GST-tagged reader, histone peptide array
Summary of the method: as §1

PHRF1 (RP) = conditions: total n = 4; for Array Heatmap signal, PHRF1 (RP): sheet "Array Heatmap", GST-tagged reader, histone peptide array
Summary of the method: as §1

## H3K14ac + K18ac: H3 1-20
KDM4C (TTP); GST-tagged KDM4C (TTP = Tandem Tudor domain + PHD), sheet Array Heatmap, each array performed twice
  Array Heatmap signal (histone peptide microarray): 0.5291
KDM5A (1); GST-tagged KDM5A (1), sheet Array Heatmap, each array performed twice
  Array Heatmap signal (histone peptide microarray): 0.555
ING2; GST-tagged ING2, sheet Array Heatmap, each array performed twice
  Array Heatmap signal (histone peptide microarray): 0.6014
KDM5A (3); GST-tagged KDM5A (3), sheet Array Heatmap, each array performed twice
  Array Heatmap signal (histone peptide microarray): 0.6717
MLL5; GST-tagged MLL5, sheet Array Heatmap, each array performed twice
  Array Heatmap signal (histone peptide microarray): 0.5196
TAF3; GST-tagged TAF3, sheet Array Heatmap, each array performed twice
  Array Heatmap signal (histone peptide microarray): 0.337
PHF23; GST-tagged PHF23, sheet Array Heatmap, each array performed twice
  Array Heatmap signal (histone peptide microarray): 0.5075
CHD4 (PPCC); GST-tagged CHD4 (PPCC = Dual PHD + Dual Chromodomain), sheet Array Heatmap, each array performed twice
  Array Heatmap signal (histone peptide microarray): 0.581
BAZ2B; GST-tagged BAZ2B, sheet Array Heatmap, each array performed twice
  Array Heatmap signal (histone peptide microarray): 0.8123
KDM5B (3); GST-tagged KDM5B (3), sheet Array Heatmap, each array performed twice
  Array Heatmap signal (histone peptide microarray): 0.6502
DPF2 (PPC2W2); GST-tagged DPF2 (PPC2W2 = Dual PHD + C2W2-type Zn-finger), sheet Array Heatmap, each array performed twice
  Array Heatmap signal (histone peptide microarray): 0.9185
ING4; GST-tagged ING4, sheet Array Heatmap, each array performed twice
  Array Heatmap signal (histone peptide microarray): 0.4542
PHF8; GST-tagged PHF8, sheet Array Heatmap, each array performed twice
  Array Heatmap signal (histone peptide microarray): 0.3925
MORC3 (CW); GST-tagged MORC3 (CW = CW-type Zn-finger), sheet Array Heatmap, each array performed twice
  Array Heatmap signal (histone peptide microarray): 0.487
ING5; GST-tagged ING5, sheet Array Heatmap, each array performed twice
  Array Heatmap signal (histone peptide microarray): 0.355
KDM5B (1); GST-tagged KDM5B (1), sheet Array Heatmap, each array performed twice
  Array Heatmap signal (histone peptide microarray): 0.7675
DIDO1; GST-tagged DIDO1, sheet Array Heatmap, each array performed twice
  Array Heatmap signal (histone peptide microarray): 0.658
PHF21A; GST-tagged PHF21A, sheet Array Heatmap, each array performed twice
  Array Heatmap signal (histone peptide microarray): 0.5152
ING1; GST-tagged ING1, sheet Array Heatmap, each array performed twice
  Array Heatmap signal (histone peptide microarray): 0.5141
KDM7A; GST-tagged KDM7A, sheet Array Heatmap, each array performed twice
  Array Heatmap signal (histone peptide microarray): 0.4239
SP140L; GST-tagged SP140L, sheet Array Heatmap, each array performed twice
  Array Heatmap signal (histone peptide microarray): 0.4262
CHD5 (PCC); GST-tagged CHD5 (PCC = PHD + Dual Chromodomain), sheet Array Heatmap, each array performed twice
  Array Heatmap signal (histone peptide microarray): 0.8723
AIRE (PP); GST-tagged AIRE (PP), sheet Array Heatmap, each array performed twice
  Array Heatmap signal (histone peptide microarray): 1
CHD5 (PPCC); GST-tagged CHD5 (PPCC = Dual PHD + Dual Chromodomain), sheet Array Heatmap, each array performed twice
  Array Heatmap signal (histone peptide microarray): 0.5768
PHF2; GST-tagged PHF2, sheet Array Heatmap, each array performed twice
  Array Heatmap signal (histone peptide microarray): 0.4774
ING3; GST-tagged ING3, sheet Array Heatmap, each array performed twice
  Array Heatmap signal (histone peptide microarray): 0.4502
TRIM66 (PB); GST-tagged TRIM66 (PB = PHD + Bromodomain), sheet Array Heatmap, each array performed twice
  Array Heatmap signal (histone peptide microarray): 0.934
RAG2; GST-tagged RAG2, sheet Array Heatmap, each array performed twice
  Array Heatmap signal (histone peptide microarray): 0.2663
PHF13; GST-tagged PHF13, sheet Array Heatmap, each array performed twice
  Array Heatmap signal (histone peptide microarray): 0.5985
BPTF (PB); GST-tagged BPTF (PB = PHD + Bromodomain), sheet Array Heatmap, each array performed twice
  Array Heatmap signal (histone peptide microarray): 0.357
PHRF1 (RP); GST-tagged PHRF1 (RP), sheet Array Heatmap, each array performed twice
  Array Heatmap signal (histone peptide microarray): 0.8706

## H3K14me2: H3 1-20 [Peptide H3K14me2]
KDM4C (TTP)
  Array Heatmap signal, KDM4C (TTP): 0.5414
KDM5A (1)
  Array Heatmap signal, KDM5A (1): 0.5072
ING2
  Array Heatmap signal, ING2: 0.6018
KDM5A (3)
  Array Heatmap signal, KDM5A (3): 0.5469
MLL5
  Array Heatmap signal, MLL5: 0.5639
TAF3
  Array Heatmap signal, TAF3: 0.2982
PHF23
  Array Heatmap signal, PHF23: 0.5616
CHD4 (PPCC)
  Array Heatmap signal, CHD4 (PPCC): 0.6389
BAZ2B
  Array Heatmap signal, BAZ2B: 0.5017
KDM5B (3)
  Array Heatmap signal, KDM5B (3): 0.5212
DPF2 (PPC2W2)
  Array Heatmap signal, DPF2 (PPC2W2): 0.7618
ING4
  Array Heatmap signal, ING4: 0.4752
PHF8
  Array Heatmap signal, PHF8: 0.3636
MORC3 (CW)
  Array Heatmap signal, MORC3 (CW): 0.4726
ING5
  Array Heatmap signal, ING5: 0.3792
KDM5B (1)
  Array Heatmap signal, KDM5B (1): 0.6811
DIDO1
  Array Heatmap signal, DIDO1: 0.7549
PHF21A
  Array Heatmap signal, PHF21A: 0.4799
ING1
  Array Heatmap signal, ING1: 0.5677
KDM7A
  Array Heatmap signal, KDM7A: 0.4126
SP140L
  Array Heatmap signal, SP140L: 0.3561
CHD5 (PCC)
  Array Heatmap signal, CHD5 (PCC): 0.8497
AIRE (PP)
  Array Heatmap signal, AIRE (PP): 0.5905
CHD5 (PPCC)
  Array Heatmap signal, CHD5 (PPCC): 0.5851
PHF2
  Array Heatmap signal, PHF2: 0.4838
ING3
  Array Heatmap signal, ING3: 0.5043
TRIM66 (PB)
  Array Heatmap signal, TRIM66 (PB): 0.6527
RAG2
  Array Heatmap signal, RAG2: 0.2574
PHF13
  Array Heatmap signal, PHF13: 0.6476
BPTF (PB)
  Array Heatmap signal, BPTF (PB): 0.3583
PHRF1 (RP)
  Array Heatmap signal, PHRF1 (RP): 0.7403

## H3K18ac (1-25): H3 1-25
KDM4C (TTP)
  Array Heatmap signal, KDM4C (TTP): 0.575
KDM5A (1)
  Array Heatmap signal, KDM5A (1): 0.5632
ING2
  Array Heatmap signal, ING2: 0.65
KDM5A (3)
  Array Heatmap signal, KDM5A (3): 0.7204
MLL5
  Array Heatmap signal, MLL5: 0.6155
TAF3
  Array Heatmap signal, TAF3: 0.3651
PHF23
  Array Heatmap signal, PHF23: 0.5923
CHD4 (PPCC)
  Array Heatmap signal, CHD4 (PPCC): 0.699
BAZ2B
  Array Heatmap signal, BAZ2B: 0.5309
KDM5B (3)
  Array Heatmap signal, KDM5B (3): 0.5812
DPF2 (PPC2W2)
  Array Heatmap signal, DPF2 (PPC2W2): 0.8287
ING4
  Array Heatmap signal, ING4: 0.5434
PHF8
  Array Heatmap signal, PHF8: 0.4195
MORC3 (CW)
  Array Heatmap signal, MORC3 (CW): 0.6771
ING5
  Array Heatmap signal, ING5: 0.4305
KDM5B (1)
  Array Heatmap signal, KDM5B (1): 0.7576
DIDO1
  Array Heatmap signal, DIDO1: 0.8263
PHF21A
  Array Heatmap signal, PHF21A: 0.5491
ING1
  Array Heatmap signal, ING1: 0.6071
KDM7A
  Array Heatmap signal, KDM7A: 0.4088
SP140L
  Array Heatmap signal, SP140L: 0.3993
CHD5 (PCC)
  Array Heatmap signal, CHD5 (PCC): 0.844
AIRE (PP)
  Array Heatmap signal, AIRE (PP): 0.502
CHD5 (PPCC)
  Array Heatmap signal, CHD5 (PPCC): 0.6616
PHF2
  Array Heatmap signal, PHF2: 0.6849
ING3
  Array Heatmap signal, ING3: 0.5765
TRIM66 (PB)
  Array Heatmap signal, TRIM66 (PB): 0.788
RAG2
  Array Heatmap signal, RAG2: 0.3351
PHF13
  Array Heatmap signal, PHF13: 0.7117
BPTF (PB)
  Array Heatmap signal, BPTF (PB): 0.4168
PHRF1 (RP)
  Array Heatmap signal, PHRF1 (RP): 0.8108
